# Experimental data from PubChem BioAssay AID248 (DTP/NCI, 2004).
# Where “and” joins values, the source holds several entries; their conditions need not be identical. Equal values may be shown once. Toxic doses and inconclusive results are not listed.
# Tested on: L1210 leukemia ip in BDF1 mice, survival T/C
# Experiment: NCI In Vivo Anticancer Drug Screen. Data for tumor model L1210 Leukemia (intraperitoneal) in B6D2F1 (BDF1) mice
# Conditions: higher = longer survival
# Method in brief: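 Ratio derived from survival: compound-dosed mice over vehicle-dosed mice, all bearing a transplantable tumor.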
# [1] = endpoint: mean survival time, dose: 50.0 mg/kg/injection, schedule: Q01DX009 (ip), vehicle: saline
smiles,measurement,setting,value
O=C1c2ccccc2CCC12OC2c1ccc(Cl)cc1 (stereo not drawn),T/C,[1],102 % of control
same,T/C,"endpoint: mean survival time, dose: 100.0 mg/kg/injection, schedule: Q01DX009 (ip), vehicle: saline",107 % of control
same,T/C,"endpoint: mean survival time, dose: 100.0 mg/kg/injection, schedule: Q04DX003 (ip), vehicle: saline with Tween-80",108 % of control
same,T/C,"endpoint: mean survival time, dose: 200.0 mg/kg/injection, schedule: Q01DX009 (ip), vehicle: saline",98 % of control
same,T/C,"endpoint: mean survival time, dose: 200.0 mg/kg/injection, schedule: Q04DX003 (ip), vehicle: saline with Tween-80",95 % of control
same,T/C,"endpoint: mean survival time, dose: 400.0 mg/kg/injection, schedule: Q01DX009 (ip), vehicle: saline",100 % of control
same,T/C,"endpoint: mean survival time, dose: 400.0 mg/kg/injection, schedule: Q04DX003 (ip), vehicle: saline with Tween-80",103 % of control
O=C(O)CCCc1ccc(N(CCCl)CCCl)cc1,T/C,"endpoint: mean survival time, dose: 0.5 mg/kg/injection, schedule: Q01DX009 (ip), vehicle: saline with Tween-80",101 % of control and 104 % of control
same,T/C,"endpoint: mean survival time, dose: 1.0 mg/kg/injection, schedule: Q01DX009 (ip), vehicle: saline with Tween-80",96 % of control and 106 % of control
same,T/C,"endpoint: mean survival time, dose: 1.0 mg/kg/injection, schedule: Q04DX002 (ip), vehicle: saline with Tween-80",95 % of control and 105 % of control
same,T/C,"endpoint: mean survival time, dose: 1.0 mg/kg/injection, schedule: Q12HX018 (ip), vehicle: saline with Tween-80",107 % of control
same,T/C,"endpoint: mean survival time, dose: 1.81 mg/kg/injection, schedule: Q01DX Z (ip), vehicle: carboxymethylcellulose (CMC)",103 % of control
same,T/C,"endpoint: mean survival time, dose: 2.0 mg/kg/injection, schedule: Q01DX009 (ip), vehicle: saline with Tween-80",103 % of control and 107 % of control
same,T/C,"endpoint: mean survival time, dose: 2.0 mg/kg/injection, schedule: Q04DX002 (ip), vehicle: saline with Tween-80",100 % of control and 105 % of control
same,T/C,"endpoint: mean survival time, dose: 2.0 mg/kg/injection, schedule: Q08HX027 (ip), vehicle: acetone",120 % of control
same,T/C,"endpoint: mean survival time, dose: 2.0 mg/kg/injection, schedule: Q12HX018 (ip), vehicle: acetone",110 % of control and 111 % of control and 121 % of control
same,T/C,"endpoint: mean survival time, dose: 2.0 mg/kg/injection, schedule: Q12HX018 (ip), vehicle: saline with Tween-80",115 % of control
same,T/C,"endpoint: mean survival time, dose: 2.5 mg/kg/injection, schedule: Q01DX001 (ip), vehicle: carboxymethylcellulose (CMC)",112 % of control
same,T/C,"endpoint: mean survival time, dose: 3.62 mg/kg/injection, schedule: Q01DX Z (ip), vehicle: carboxymethylcellulose (CMC)",106 % of control
same,T/C,"endpoint: mean survival time, dose: 4.0 mg/kg/injection, schedule: Q01DX009 (ip), vehicle: acetone",112 % of control and 123 % of control
same,T/C,"endpoint: mean survival time, dose: 4.0 mg/kg/injection, schedule: Q01DX009 (ip), vehicle: saline with Tween-80",100 % of control and 115 % of control
same,T/C,"endpoint: mean survival time, dose: 4.0 mg/kg/injection, schedule: Q04DX002 (ip), vehicle: saline with Tween-80",96 % of control and 102 % of control
same,T/C,"endpoint: mean survival time, dose: 4.0 mg/kg/injection, schedule: Q12HX018 (ip), vehicle: Klucel (hydroxypropylcellulose) (HPC)",115 % of control
same,T/C,"endpoint: mean survival time, dose: 4.0 mg/kg/injection, schedule: Q12HX018 (ip), vehicle: acetone",122 % of control
same,T/C,"endpoint: mean survival time, dose: 4.0 mg/kg/injection, schedule: Q12HX018 (ip), vehicle: other",112 % of control and 121 % of control
same,T/C,"endpoint: mean survival time, dose: 4.0 mg/kg/injection, schedule: Q12HX018 (ip), vehicle: saline with Tween-80",124 % of control
same,T/C,"endpoint: mean survival time, dose: 5.0 mg/kg/injection, schedule: Q01DX001 (ip), vehicle: carboxymethylcellulose (CMC)",103 % of control
same,T/C,"endpoint: mean survival time, dose: 5.0 mg/kg/injection, schedule: Q08HX027 (ip), vehicle: acetone",90 % of control
same,T/C,"endpoint: mean survival time, dose: 5.8 mg/kg/injection, schedule: Q01DX Z (ip), vehicle: carboxymethylcellulose (CMC)",101 % of control and 103 % of control
same,T/C,"endpoint: mean survival time, dose: 6.0 mg/kg/injection, schedule: Q12HX018 (ip), vehicle: Klucel (hydroxypropylcellulose) (HPC)",116 % of control
same,T/C,"endpoint: mean survival time, dose: 6.0 mg/kg/injection, schedule: Q12HX018 (ip), vehicle: acetone",162 % of control
same,T/C,"endpoint: mean survival time, dose: 6.0 mg/kg/injection, schedule: Q12HX018 (ip), vehicle: other",120 % of control
same,T/C,"endpoint: mean survival time, dose: 6.0 mg/kg/injection, schedule: Q12HX018 (ip), vehicle: saline with Tween-80",120 % of control
same,T/C,"endpoint: mean survival time, dose: 6.25 mg/kg/injection, schedule: Q01DX Z (ip), vehicle: carboxymethylcellulose (CMC)",113 % of control
same,T/C,"endpoint: mean survival time, dose: 7.25 mg/kg/injection, schedule: Q01DX Z (ip), vehicle: carboxymethylcellulose (CMC)",98 % of control and 103 % of control and 120 % of control
same,T/C,"endpoint: mean survival time, dose: 8.0 mg/kg/injection, schedule: Q01DX009 (ip), vehicle: saline with Tween-80",115 % of control and 116 % of control
same,T/C,"endpoint: mean survival time, dose: 8.0 mg/kg/injection, schedule: Q04DX002 (ip), vehicle: saline with Tween-80",96 % of control and 98 % of control
same,T/C,"endpoint: mean survival time, dose: 8.0 mg/kg/injection, schedule: Q12HX018 (ip), vehicle: Klucel (hydroxypropylcellulose) (HPC)",114 % of control and 118 % of control
same,T/C,"endpoint: mean survival time, dose: 8.0 mg/kg/injection, schedule: Q12HX018 (ip), vehicle: acetone",100 % of control
same,T/C,"endpoint: mean survival time, dose: 8.0 mg/kg/injection, schedule: Q12HX018 (ip), vehicle: saline with Tween-80",118 % of control
same,T/C,"endpoint: mean survival time, dose: 9.66 mg/kg/injection, schedule: Q01DX Z (ip), vehicle: carboxymethylcellulose (CMC)",100 % of control and 114 % of control
same,T/C,"endpoint: mean survival time, dose: 10.0 mg/kg/injection, schedule: Q01DX001 (ip), vehicle: carboxymethylcellulose (CMC)",109 % of control
same,T/C,"endpoint: mean survival time, dose: 10.0 mg/kg/injection, schedule: Q12HX018 (ip), vehicle: acetone",88 % of control
same,T/C,"endpoint: mean survival time, dose: 12.0 mg/kg/injection, schedule: Q01DX009 (ip), vehicle: acetone",122 % of control
same,T/C,"endpoint: mean survival time, dose: 12.0 mg/kg/injection, schedule: Q12HX018 (ip), vehicle: Klucel (hydroxypropylcellulose) (HPC)",103 % of control and 121 % of control
same,T/C,"endpoint: mean survival time, dose: 12.0 mg/kg/injection, schedule: Q12HX018 (ip), vehicle: saline with Tween-80",109 % of control
same,T/C,"endpoint: mean survival time, dose: 12.5 mg/kg/injection, schedule: Q01DX Z (ip), vehicle: carboxymethylcellulose (CMC)",110 % of control
same,T/C,"endpoint: mean survival time, dose: 14.5 mg/kg/injection, schedule: Q01DX Z (ip), vehicle: carboxymethylcellulose (CMC)",114 % of control and 117 % of control
same,T/C,"endpoint: mean survival time, dose: 16.0 mg/kg/injection, schedule: Q01DX009 (ip), vehicle: acetone",101 % of control and 115 % of control
same,T/C,"endpoint: mean survival time, dose: 16.0 mg/kg/injection, schedule: Q01DX009 (ip), vehicle: saline with Tween-80",121 % of control
same,T/C,"endpoint: mean survival time, dose: 16.0 mg/kg/injection, schedule: Q04DX002 (ip), vehicle: saline with Tween-80",100 % of control and 108 % of control
same,T/C,"endpoint: mean survival time, dose: 16.0 mg/kg/injection, schedule: Q12HX018 (ip), vehicle: Klucel (hydroxypropylcellulose) (HPC)",92 % of control
same,T/C,"endpoint: mean survival time, dose: 18.0 mg/kg/injection, schedule: Q01DX001 (ip), vehicle: carboxymethylcellulose (CMC)",105 % of control
same,T/C,"endpoint: mean survival time, dose: 20.0 mg/kg/injection, schedule: Q01DX001 (ip), vehicle: carboxymethylcellulose (CMC)",115 % of control
same,T/C,"endpoint: mean survival time, dose: 20.0 mg/kg/injection, schedule: Q01DX009 (ip), vehicle: acetone",92 % of control
same,T/C,"endpoint: mean survival time, dose: 20.0 mg/kg/injection, schedule: Q12HX018 (ip), vehicle: Klucel (hydroxypropylcellulose) (HPC)",89 % of control
same,T/C,"endpoint: mean survival time, dose: 25.0 mg/kg/injection, schedule: Q01DX Z (ip), vehicle: carboxymethylcellulose (CMC)",116 % of control
same,T/C,"endpoint: mean survival time, dose: 27.0 mg/kg/injection, schedule: Q01DX001 (ip), vehicle: carboxymethylcellulose (CMC)",109 % of control
same,T/C,"endpoint: mean survival time, dose: 27.0 mg/kg/injection, schedule: Q01DX001 (ip), vehicle: saline with Tween-80",113 % of control and 115 % of control
same,T/C,"endpoint: mean survival time, dose: 31.0 mg/kg/injection, schedule: Q04DX002 (ip), vehicle: saline with Tween-80",108 % of control and 109 % of control
same,T/C,"endpoint: mean survival time, dose: 40.0 mg/kg/injection, schedule: Q01DX001 (ip), vehicle: carboxymethylcellulose (CMC)",115 % of control
same,T/C,"endpoint: mean survival time, dose: 41.0 mg/kg/injection, schedule: Q01DX001 (ip), vehicle: carboxymethylcellulose (CMC)",114 % of control
same,T/C,"endpoint: mean survival time, dose: 41.0 mg/kg/injection, schedule: Q01DX001 (ip), vehicle: saline with Tween-80",115 % of control and 121 % of control
same,T/C,"endpoint: median survival time, dose: 3.0 mg/kg/injection, schedule: Q01DX009 (ip), vehicle: saline",99 % of control
same,T/C,"endpoint: median survival time, dose: 6.0 mg/kg/injection, schedule: Q01DX009 (ip), vehicle: saline",105 % of control
same,T/C,"endpoint: median survival time, dose: 12.0 mg/kg/injection, schedule: Q01DX009 (ip), vehicle: saline",96 % of control
same,T/C,"endpoint: median survival time, dose: 24.0 mg/kg/injection, schedule: Q01DX009 (ip), vehicle: saline",89 % of control
CC(C)(C)NC=O,T/C,[1],98 % of control
same,T/C,"endpoint: mean survival time, dose: 75.0 mg/kg/injection, schedule: Q01DX009 (ip), vehicle: saline",93 % of control
same,T/C,"endpoint: mean survival time, dose: 75.0 mg/kg/injection, schedule: Q04DX003 (ip), vehicle: saline",106 % of control
same,T/C,"endpoint: mean survival time, dose: 150.0 mg/kg/injection, schedule: Q04DX003 (ip), vehicle: saline",96 % of control
O=C(C[P+](c1ccccc1)(c1ccccc1)c1ccccc1)c1ccccc1,T/C,"endpoint: mean survival time, dose: 75.0 mg/kg/injection, schedule: Q01DX001 (ip), vehicle: carboxymethylcellulose (CMC)",92 % of control
same,T/C,"endpoint: mean survival time, dose: 100.0 mg/kg/injection, schedule: Q01DX001 (ip), vehicle: Klucel (hydroxypropylcellulose) (HPC)",97 % of control
same,T/C,"endpoint: mean survival time, dose: 150.0 mg/kg/injection, schedule: Q01DX001 (ip), vehicle: carboxymethylcellulose (CMC)",97 % of control
same,T/C,"endpoint: mean survival time, dose: 300.0 mg/kg/injection, schedule: Q01DX001 (ip), vehicle: carboxymethylcellulose (CMC)",92 % of control
O=C(NC(CO)CCCO)c1ccc([N+](=O)[O-])cc1 (stereo not drawn),T/C,"endpoint: mean survival time, dose: 100.0 mg/kg/injection, schedule: Q04DX003 (ip), vehicle: Klucel (hydroxypropylcellulose) (HPC)",108 % of control
same,T/C,"endpoint: mean survival time, dose: 200.0 mg/kg/injection, schedule: Q04DX003 (ip), vehicle: Klucel (hydroxypropylcellulose) (HPC)",86 % of control
same,T/C,"endpoint: mean survival time, dose: 400.0 mg/kg/injection, schedule: Q04DX003 (ip), vehicle: Klucel (hydroxypropylcellulose) (HPC)",96 % of control
